Experimental data published in patent EP2060564A1, “Non-peptidic promoters of apoptosis” (Ludwig-Maximilians-Universität München, priority 2007, dated 2009).
Where “and” joins values, the source holds several entries; their conditions need not be identical. Identical values can stand only once.

Assays:
[1] = tested on: Human leukemia Jurkat T cells; assay: Quantification of apoptosis (Nicoletti, PI staining, flow cytometry) in Jurkat cells; format: cell-based; settings: mean value and standard deviation (C.I.95), n = 3
Method: Cell Culture. Human leukemia Jurkat T cells (clone J16), Jurkat T-cells stably transfected with either empty vector (Jurkat vector, pBabe Jurkat) or XIAP (Jurkat-XIAP) as well as the BIR-3 domain only (BIR-3-sp-RING-Jurkat) (kindly provided by Dr. Colin Duckett at the University of Michigan) were cultured (37°C and 5% CO2 in RPMI 1640 containing 2 mM L-glutamine (PAN Biotech, Aidenbach, Germany) supplemented with 10% FCS gold (PAA Laboratories, Cölbe, Germany) and 1% Pyruvat (Sigma Deisenhofen, Germany).
(§1) Detection an Quantification of Apoptosis. Quantification of apoptosis was performed according to Nicoletti et al. (J Immunol. Methods (1991) 139, 271-279). Briefly, cells were incubated for 24 h in a hypotonic buffer (0.1% sodium citrate, 0.1% Triton-X-100 and 50 µg/ml PI) and analyzed by flow cytometry on a FACSCalibur (Becton Dickinson, Heidelberg, Germany). Nuclei to the left of the G1-peak containing hypodiploid DNA were considered apoptotic.
Compounds were first tested for their apoptotic potential in Jurkat cells alone as well as in combination with sub-optimal concentrations of etoposide. […] Similar results were obtained for compound II-1 (55.8% apoptotic cells). Table 1: Percentage of apoptotic Jurkat cells measured after application of medium control, 0.75 µM etoposide, 25 µM test substance, and a mixture of 0.75 µM etoposide and 25 µM test substance, respectively.a

[2] = tested on: Jurkat cells overexpressing full-length XIAP or BIR-3/Ring; assay: Quantification of apoptosis in Jurkat cell lines overexpressing XIAP or BIR-3/Ring; format: cell-based, Human; settings: wild type Jurkat cells and Jurkat cells overexpressing full-length XIAP or BIR-3/Ring; with low dose of etoposide (Figure 1)
Method: Figure 1: Compound I-1 sensitizes different Jurkat cell lines towards etoposide-induced apoptosis. Compound I-1 was tested in wildtype human leukemia Jurkat T cells (A), as well as in Jurkat cells stably transfected with empty vector (B), full-length XIAP overexpressing Jurkat cells (C) or the […] domain overexpressing Jurkat cells (D). Cell death was evaluated as described under "Materials and Methods". Bars, the mean ± SE of three independent experiments performed in triplicate. *** P<0.001 (Anova/Bonferroni), n.s., not significant.
Cell Culture. […]
as §1, with “Nuclei to the left of the G1-peak containing hypodiploid DNA were considered apoptotic.” left out

[3] = tested on: Wildtype Jurkat cells; assay: Clonogenic assay; format: cell-based, Human; settings: 1h with 25µM compound and 500nM etoposide; colonies scored after 7 days (Figure 2)
Method: (§2) Figure 2: Compound I-1 sensitizes to a reduction of etoposide-induced clonogenic survival. Wild type Jurkat cells were left untreated (A) or treated for 1h with 25µM of compound I-1 (B), 500nM etoposide (C) or a combination of both (D). After replacement into fresh methylcellulose medium, cells were incubated for 7 days. Afterwards colony number was counted (E). Bars, the mean ± SE of three independent experiments. *** P<0.001 (Anova/Bonferroni). Figure 3: Compound I-1 increases initiator caspase activities. Wild type Jurkat cells were left untreated or treated with 25µM of compound I-1, 500nM etoposide or a combination of both for the indicated time periods. Fluorescence measurements were performed for caspase-9 (A) and caspase-3 (B). Protein concentration was used for normalization. Bars, the mean ± SE of three independent experiments performed in triplicate. *** P<0.001 (Anova/Bonferroni).
Clonogenic assay. Wildtype Jurkat cells were left untreated or treated for 1h with 25µM test compound, 500nM etoposide or a combination of both. Subsequently, cells were washed with PBS and resuspended in culture medium (5x10^5 cells/ml). Cell suspensions were diluted 1:10 with methylcellulose (0.52%) medium containing 40% FCS. Cells were seeded in 96-well plates (100 µl) and colonies were scored after 7 days of culture.

[4] = tested on: caspase-9; assay: Caspase-9 activity assay (Ac-LEHD-AFC substrate); format: cell-based, Human; settings: 25µM compound with 500nM etoposide, wild type Jurkat cells (Figure 3)
Method: as §2
(§3) Caspase-9/3 activity assay. Caspase-9/3 activity was measured using caspase-9(Ac-LEHD-AFC) or caspase 3(Ac-DEVD-AFC) substrates (both from Bachem AG, Bubendorf, Germany). […] The reading was performed in a plate-reading multifunction photometer (SPECTRAFLUOR PLUS, Tecan, Crailsheim, Germany). The activity was calculated from the difference between fluorescence in the 0 point and after 1h (for caspase-3) or after 3h (for caspase-9). […]

[5] = tested on: caspase-3; assay: Caspase-3 activity assay (Ac-DEVD-AFC substrate); format: cell-based, Human; settings: 25µM compound with 500nM etoposide, wild type Jurkat cells (Figure 3)
Method: as §2, §3

[6] = tested on: caspase-9, caspase-3 and PARP; assay: Western Blot analysis of caspase-9, caspase-3 and PARP cleavage; format: cell-based, Human; settings: 25µM compound with 500nM etoposide, wild type Jurkat cells, time dependent (Figure 4)
Method: Figure 4: Compound I-1 activates initiator caspases and induces PARP cleavage. Wild type Jurkat cells were left untreated or treated with 25µM of compound I-1, 500nM etoposide or a combination of both for the indicated time periods. Expression of caspase-9, caspase-3 and PARP was assessed by Western Blot analysis. Cleavage products are indicated by arrows. Ponceau S was used as loading control. A representative experiment out of three independent experiments is shown.
Western Blot Analysis. Cells were collected by centrifugation, washed with ice-cold PBS and lysed in 1% Triton X-100, 0.15 M NaCl and 30 mM Tris-HCl pH 7.5 with the protease inhibitor complete™ (Roche, Mannheim, Germany) for 30 min. Lysates were centrifuge at 10,000xg for 10 min at 4°C. Equal amounts of protein were separated by SDS-PAGE (12% for XIAP) transferred to polyvinylidene difluoride membranes (Immobilon-P™, Millipore, Eschborn, Germany). Equal protein loading was controlled by coomassie staining of gels. Membranes were blocked with 5% fat-free milk powder in PBS containing 0.05% Tween-20 (1 h) and incubated with specific antibodies against XIAP (mouse antibody IgG1, clone 28, BD Transduction Laboratories, Heidelberg, Germany) overnight at 4°C. […]

[7] = target: T1, XIAP (Homo sapiens, UniProt P98170); assay: Western Blot analysis of XIAP protein level; format: cell-based; settings: 25µM compound alone as well as in combination with 500nM etoposide; 16 and 24 h (Figure 5)
T1 construct: endogenous in cells
Method: Figure 5: XIAP protein level is reduced by compound I-1. Cells were left untreated (CO) or treated with 25µM of compound I-1, 500nM etoposide or with combination of both for the indicated time periods. XIAP protein level was detected by Western Blot analysis. Ponceau S was used as loading control. A representative experiment out of three independent experiments is shown.
Western Blot Analysis. Cells were collected by centrifugation, washed with ice-cold PBS and lysed in 1% Triton X-100, 0.15 M NaCl and 30 mM Tris-HCl pH 7.5 with the protease inhibitor complete™ (Roche, Mannheim, Germany) for 30 min. Lysates were centrifuge at 10,000xg for 10 min at 4°C. Equal amounts of protein were separated by SDS-PAGE (12% for XIAP) transferred to polyvinylidene difluoride membranes (Immobilon-P™, Millipore, Eschborn, Germany). Equal protein loading was controlled by coomassie staining of gels. Membranes were blocked with 5% fat-free milk powder in PBS containing 0.05% Tween-20 (1 h) and incubated with specific antibodies against XIAP (mouse antibody IgG1, clone 28, BD Transduction Laboratories, Heidelberg, Germany) overnight at 4°C. Specific proteins were visualized by secondary antibodies conjugated to horseradish peroxidase and the ECL Plus™ Western Blotting detection reagent (Amersham Biosciences, Freiburg, Germany). […]

[8] = Etoposide 0.75µM and Substance 25µM

T1 sequence (P98170 whole entry): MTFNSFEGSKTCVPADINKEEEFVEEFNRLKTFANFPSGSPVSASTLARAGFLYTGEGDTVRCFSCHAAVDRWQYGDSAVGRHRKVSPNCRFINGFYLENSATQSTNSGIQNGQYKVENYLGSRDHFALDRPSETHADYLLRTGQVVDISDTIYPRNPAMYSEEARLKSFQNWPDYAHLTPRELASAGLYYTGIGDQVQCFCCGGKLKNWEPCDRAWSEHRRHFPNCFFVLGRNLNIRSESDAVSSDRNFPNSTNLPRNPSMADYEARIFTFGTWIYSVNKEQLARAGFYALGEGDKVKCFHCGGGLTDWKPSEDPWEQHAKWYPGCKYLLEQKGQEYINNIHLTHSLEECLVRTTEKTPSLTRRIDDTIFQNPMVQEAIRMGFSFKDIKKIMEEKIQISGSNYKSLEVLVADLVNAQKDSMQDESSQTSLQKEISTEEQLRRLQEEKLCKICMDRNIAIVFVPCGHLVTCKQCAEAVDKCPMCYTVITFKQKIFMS

Row | caspase-9 activity induced by etoposide [4] | caspase-3 activity induced by etoposide [5] | SMILES | Percentage of apoptotic Jurkat cells [1, 8] | Percentage of apoptotic Jurkat cells ([1]; Substance 25µM alone) [%] | apoptosis induced by subtoxic concentrations of etoposide [2] | clonogenic survival of etoposide treated Jurkat cells [3] | cleavage of caspase-9 and -3 proforms as well as PARP induced by etoposide [6] | XIAP protein level [7] | Percentage of apoptotic Jurkat cells ([1]; Etoposide 0.75µM alone)
1 | significantly increased | significantly increased | CCc1cccc(CC)c1NC(=O)CN1CCC(NC(=O)c2cccc(F)c2)CC1 [Compound I-1] | 65.7% and 65.74±6.0% | 13.16±2.28 | potentiates apoptosis induced by subtoxic concentrations of etoposide | sensitizes for reduction of clonogenic survival of etoposide treated Jurkat cells | strong impact of compound I-1 on cleavage of caspase-9 and -3 proforms as well as PARP | able to reduce XIAP protein after 16 and 24 h | 
2 |  |  | COc1cc([C@@H]2c3cc4c(cc3[C@@H](O[C@@H]3O[C@@H]5CO[C@@H](C)O[C@H]5[C@H](O)[C@H]3O)[C@H]3COC(=O)[C@H]23)OCO4)cc(OC)c1O [Etoposide, reference compound] |  |  |  |  |  |  | 30.66±9.89% and 31.31±2.74%
3 |  |  | NNC(=O)CNC(c1ccccc1)c1cc(Br)ccc1NC(=O)c1ccccc1Br (centres unmarked) [II-1] | 55.8% and 55.82±12.23% | 10.69±1.25 |  |  |  |  | 
